These results are taken from ChEMBL document CHEMBL1130729, “Synthesis and transporter binding properties of (R)-2 beta, 3 beta- and (R)-2 alpha, 3 alpha-diaryltropanes” (Bioorg Med Chem Lett, 1998).

Assay [1] deals with Norepinephrine transporter (Rattus norvegicus, UniProt Q9WTR4). Nature of the assay: Inhibitory activity against radioligand [3H]nisoxetine binding at the norepinephrine transporter.
Assay [2] concerns the target Sodium-dependent dopamine transporter (Rattus norvegicus, UniProt P23977). The experiment in a line: Inhibitory activity against radioligand [3H]WIN-35428 binding at the dopamine transporter.
In assay [3] the target is Sodium-dependent serotonin transporter (Rattus norvegicus, UniProt P31652). Nature of the assay: Inhibitory activity against radioligand [3H]paroxetine binding at the serotonin transporter.
Sodium-dependent serotonin transporter, sequence (P31652 whole entry): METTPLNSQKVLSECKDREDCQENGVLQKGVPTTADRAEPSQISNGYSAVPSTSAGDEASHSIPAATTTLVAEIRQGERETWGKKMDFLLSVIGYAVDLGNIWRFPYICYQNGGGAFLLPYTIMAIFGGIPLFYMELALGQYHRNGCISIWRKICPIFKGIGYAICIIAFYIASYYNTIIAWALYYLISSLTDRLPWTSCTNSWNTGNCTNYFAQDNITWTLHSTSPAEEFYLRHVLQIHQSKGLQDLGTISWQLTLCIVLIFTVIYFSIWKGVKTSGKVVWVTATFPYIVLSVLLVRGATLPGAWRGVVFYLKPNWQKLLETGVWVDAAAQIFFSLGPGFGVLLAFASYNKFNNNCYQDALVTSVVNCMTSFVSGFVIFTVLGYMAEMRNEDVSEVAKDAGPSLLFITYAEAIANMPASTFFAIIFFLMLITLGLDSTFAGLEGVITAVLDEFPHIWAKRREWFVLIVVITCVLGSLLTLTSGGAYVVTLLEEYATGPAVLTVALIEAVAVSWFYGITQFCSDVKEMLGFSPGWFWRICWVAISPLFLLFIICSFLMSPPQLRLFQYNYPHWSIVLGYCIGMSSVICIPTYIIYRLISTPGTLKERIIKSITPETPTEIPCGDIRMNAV

Norepinephrine transporter, sequence (Q9WTR4 whole entry): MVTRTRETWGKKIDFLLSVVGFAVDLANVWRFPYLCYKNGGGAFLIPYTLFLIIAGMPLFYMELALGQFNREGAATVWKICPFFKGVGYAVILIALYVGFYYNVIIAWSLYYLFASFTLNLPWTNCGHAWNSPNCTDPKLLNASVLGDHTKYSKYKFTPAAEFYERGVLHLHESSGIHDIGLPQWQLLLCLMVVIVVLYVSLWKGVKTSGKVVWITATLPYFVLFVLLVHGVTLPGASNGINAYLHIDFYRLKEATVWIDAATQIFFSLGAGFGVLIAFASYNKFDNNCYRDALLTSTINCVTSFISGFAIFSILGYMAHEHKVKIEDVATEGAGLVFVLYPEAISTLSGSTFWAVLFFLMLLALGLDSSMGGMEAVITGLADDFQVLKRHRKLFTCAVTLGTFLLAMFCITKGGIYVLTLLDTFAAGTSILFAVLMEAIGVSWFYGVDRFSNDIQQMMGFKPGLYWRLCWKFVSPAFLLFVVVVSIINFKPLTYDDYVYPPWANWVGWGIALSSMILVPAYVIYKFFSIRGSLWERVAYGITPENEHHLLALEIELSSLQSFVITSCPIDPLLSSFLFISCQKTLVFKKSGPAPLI
Sodium-dependent dopamine transporter, sequence (P23977 whole entry): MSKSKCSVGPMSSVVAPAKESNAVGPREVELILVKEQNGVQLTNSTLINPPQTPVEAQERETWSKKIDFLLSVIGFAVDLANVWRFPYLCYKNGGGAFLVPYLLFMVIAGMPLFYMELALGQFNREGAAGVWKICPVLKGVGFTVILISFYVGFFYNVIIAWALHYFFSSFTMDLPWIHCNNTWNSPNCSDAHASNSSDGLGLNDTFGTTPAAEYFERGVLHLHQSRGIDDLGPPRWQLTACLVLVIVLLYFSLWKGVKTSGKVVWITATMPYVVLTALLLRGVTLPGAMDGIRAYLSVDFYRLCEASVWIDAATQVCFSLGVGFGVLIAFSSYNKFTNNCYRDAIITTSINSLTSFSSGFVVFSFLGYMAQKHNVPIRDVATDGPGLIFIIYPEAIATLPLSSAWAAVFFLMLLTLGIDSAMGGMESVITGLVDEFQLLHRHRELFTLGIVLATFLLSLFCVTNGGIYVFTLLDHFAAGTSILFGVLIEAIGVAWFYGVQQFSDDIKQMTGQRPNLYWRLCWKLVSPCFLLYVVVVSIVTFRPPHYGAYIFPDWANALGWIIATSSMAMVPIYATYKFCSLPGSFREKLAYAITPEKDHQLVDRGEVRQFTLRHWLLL

What is called IC50 is the midpoint of a concentration-inhibition curve. High values mean weaker potency, low ones greater potency. On to `CN1C2CC[C@@H]1C[C@@H](c1ccccc1)[C@@H]2c1ccccc1` (single isomer, unassigned; form 2), for which the IC50 was determined as 1040 nM in assay [1], 690 nM in assay [2] and 41300 nM in assay [3].

Turning to `Cc1ccc(C2C[C@H]3CCC(C2c2ccccc2)N3C)cc1` (stereo in doubt; (R)-3b), the IC50 in assay [1] turned out to be 479 nM; in assay [2], 1.96 nM; in assay [3] it was 11000 nM.

Regarding `Cc1ccc(C2C[C@H]3CCC(C2c2ccccc2)N3C)cc1` (stereo in doubt; (R)-4b), the figures for the IC50 in assay [1], in assay [2] and in assay [3] were 4850 nM, 429 nM and 15800 nM, respectively.

For the compound `CN1[C@@H]2CC[C@H]1C(c1ccccc1)C(c1ccccc1)C2` (mixture of isomers; form 2), the IC50 in assay [1] worked out at 2770 nM; in assay [3], 186000 nM.

For the compound `CN1C2CC[C@@H]1C[C@@H](c1ccccc1)[C@@H]2c1ccccc1` (single isomer, unassigned; form 1), the IC50 in assay [1] worked out at 917 nM; in assay [2], 12.6 nM; in assay [3], 21100 nM.

As for `CN1[C@@H]2CC[C@H]1C(c1ccccc1)C(c1ccccc1)C2` (mixture of isomers; form 1), the IC50 in assay [1] was 2670 nM; in assay [2] it was 28 nM; in assay [3], 34700 nM.
